From PubChem BioAssay (NCI)
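Test compounds were applied to cells in 96-well plates for 48 hours at 5 doses. Abbreviation: GI50, concentration required for 50% inhibition of growth. At the TGI there is no net growth.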

How the values were obtained:
Experiment in all cases: DTP human tumour cell line panel, 48 h
CCRF-CEM leukemia = test system: CCRF-CEM leukemia
KM12 colon = test system: KM12 colon
MCF7 breast = test system: MCF7 breast
MDA-MB-231 breast = test system: MDA-MB-231 breast
MDA-MB-435 = test system: MDA-MB-435
NCI-H23 lung = test system: NCI-H23 lung
OVCAR-4 ovarian = test system: OVCAR-4 ovarian
SNB-19 CNS = test system: SNB-19 CNS
SNB-75 CNS = test system: SNB-75 CNS
TK-10 renal = test system: TK-10 renal

Q: Which results are given for `CC(C)(C)c1ccc(Oc2ccc(N)cn2)cc1`?
A: GI50 (CCRF-CEM leukemia): 1.06 µM; TGI (CCRF-CEM leukemia): > 100 µM; GI50 (KM12 colon): 44.2 µM; TGI (KM12 colon): > 100 µM; GI50 (MCF7 breast): 46.5 µM; TGI (MCF7 breast): > 100 µM; GI50 (MDA-MB-231 breast): 31.7 µM; TGI (MDA-MB-231 breast): > 100 µM; GI50 (MDA-MB-435): 72.9 µM; TGI (MDA-MB-435): > 100 µM; GI50 (NCI-H23 lung): 53 µM; TGI (NCI-H23 lung): > 100 µM; GI50 (OVCAR-4 ovarian): 32.8 µM; TGI (OVCAR-4 ovarian): > 100 µM; GI50 (SNB-19 CNS): > 100 µM; TGI (SNB-19 CNS): > 100 µM; GI50 (SNB-75 CNS): 10.9 µM; TGI (SNB-75 CNS): > 100 µM; GI50 (TK-10 renal): > 100 µM; TGI (TK-10 renal): > 100 µM

Q: What does the source list for `CC1=C(SCCC(=O)OC(C[Se]C2=C(C)C(=O)c3ccccc3C2=O)C(=O)NCCCCCC(=O)OCc2ccccc2)C(=O)c2ccccc2C1=O` (stereo not given)?
A: GI50 (CCRF-CEM leukemia): 2.82 µM; TGI (CCRF-CEM leukemia): > 100 µM; GI50 (KM12 colon): 1.4 µM; TGI (KM12 colon): 4.07 µM; GI50 (MCF7 breast): 4.75 µM; TGI (MCF7 breast): 29.6 µM; GI50 (MDA-MB-231 breast): 6.81 µM; TGI (MDA-MB-231 breast): 22 µM; GI50 (MDA-MB-435): 2.13 µM; TGI (MDA-MB-435): 13 µM; GI50 (NCI-H23 lung): 2.76 µM; TGI (NCI-H23 lung): 7.84 µM; GI50 (OVCAR-4 ovarian): 12.3 µM; TGI (OVCAR-4 ovarian): 25.1 µM; GI50 (SNB-19 CNS): 3.82 µM; TGI (SNB-19 CNS): 14 µM; GI50 (SNB-75 CNS): 11.5 µM; TGI (SNB-75 CNS): 23.8 µM; GI50 (TK-10 renal): 13.8 µM; TGI (TK-10 renal): 27.2 µM
